Experimental data: patent US6946457B2, “Methods of treating sickle cell disease” (The Trustees of Columbia University in the City of New York, priority 2001, dated 2005)

Columns and labels:
hemoglobin S = biological target: T1, hemoglobin S (Homo sapiens, UniProt P68871+P69905, E7V); assay: Inhibition of aggregation of deoxygenated hemoglobin S (turbidity at 700 nm); type: biochemical; conditions: low oxygen tension, 1.8M phosphate buffer, 30° C.
T1 construct: from tissue; host or cells: blood / erythrocytes of a subject with sickle cell disease (inferred from the general method)
Protocol: Inhibition of Aggregation of Hemoglobin S
To a 10 mm cuvette (Type 9GL14S, Septum seal, Uvonic Instruments, Plainview, N.Y. 11803) containing 0.9 ml of 1.8M phosphate buffer, pH 9.4, was added 5 mg of Na2S203. The cuvette was capped and two #25 hypodermic needles were inserted through the soft plastic seals. Nitrogen was passed over the surface of the solution for 15 minutes to drive off oxygen; the cuvette was then gently shaken to dissolve the Na2S203. The cuvette was then placed in an ice bath to bring the solution to 4° C. and 0.1 ml of a 2 g/dl HbS solution (13, 14) was added through the plastic diaphragm with a Hamilton air-tight syringe. The temperature of the solution in the cuvette was raised by placing it in a 30° C. bath and then into a spectrophotometer in which the increase in turbidity was measured with time at 700 nm. […] The latter was extracted with phosphate buffer from tablets of Valtrex (Glaxo Wellcome).

HbS erythrocytes [1] = assay: Inhibition of sickling of intact erythrocytes at low oxygen tension; type: cell-based, human; conditions: for sickling of deoxygenated erythrocytes: microscope, formalin-fixed
Protocol: The procedure used was essentially that of Cerami and Manning (15). The source of the red cells was human blood in which HbS represented essentially 100% of the total hemoglobin as determined by electrophoresis on a cellulose acetate membrane in a Supre-Heme® Tris-EDTA-boric acid buffer (Helena Laboratories, Beaumont, Tex.).
Ten microliters of blood was diluted to 5 ml with PBS and 1 ml aliquots were distributed into the same type of cuvettes used to study hemoglobin S aggregation (see above). Two #25 hypodermic needles were inserted into each plastic diaphragm and nitrogen was passed over the surface of the erythrocyte suspension for 15 minutes with periodic gentle shaking. The hypodermic needles were removed and the sealed cuvettes were left for 2 hours at room temperature. The control cuvette was treated identically except that the cap was loosened for the 2 hour period.
Then 250 μl of 10% buffered formalin (Metpath) was added to the cell suspensions, which were allowed to stand at room temperature for 15 minutes. The cell suspensions were then sedimented by centrifugation, suspended in 100 μl of PBS and examined under the microscope.

HbS erythrocytes [2] = conditions: literature (15, 16); cited from earlier work
human hemoglobin = human hemoglobin (Homo sapiens, UniProt P68871+P69905); conditions: personal communication; cited from earlier work

SMILES: CC(C)[C@H](N)C(=O)OCCOCn1cnc2c(=O)[nH]c(N)nc21 [valacyclovir, L-valine, 2-[(2-amino-1,6-dihydro-6-oxo-9H-purin-9-yl)methoxy]ethyl ester]
- in vitro aggregation of HbS (hemoglobin S): inhibiting

SMILES: N#C[O-].[K+] [KCNO]
- concentration relative to the effective concentration of acyclovir (HbS erythrocytes [1]; KCNO 2.4 mg/ml versus acyclovir (FIG. 2)): more than 10 ×
- concentration used to inhibit sickling (HbS erythrocytes [2]): 2.4 mg/mL

SMILES: Nc1nc2c(ncn2COCCO)c(=O)[nH]1 [acyclovir, 2-amino-1,9-dihydro-9-[(2-hydroxyethoxy)methyl]-6H-purin-6-one]
- sickling of deoxygenated erythrocytes (HbS erythrocytes [1]; 0.2 mg/ml): Minimal sickling
- sickling of deoxygenated erythrocytes (HbS erythrocytes [1]; 0.3 mg/ml): Minimal sickling
- sickling of deoxygenated erythrocytes (HbS erythrocytes [1]; 0.4 mg/ml): essentially no sickling
- proportion of sickling cells (HbS erythrocytes [1]; lowest concentration (FIG. 2B, 0.2 mg/ml)): below 60%
- change in Hill coefficient (human hemoglobin): no significant change
- change in oxygen affinity (human hemoglobin): no significant change
- in vitro aggregation of HbS (hemoglobin S): inhibiting
